# Experiments:
# dopamine D2 receptor = dopamine D2 receptor (Chlorocebus aethiops, UniProt P52702); assay: D2 receptor binding assay (3H-YM 09151-2 displacement); settings: CHO cells recombinantly expressing primate D2; 0.1 nM 3H-YM 09151-2; 25° C.
# Description: (§1) Determination of D2 and D4 Receptor Binding Activity
# (§2) The following assay is used for determining the binding affinity of compounds to dopamine D4 and D2 receptors.
# (§3) Pellets of Chinese hamster ovary (CHO) cells containing recombinantly expressing primate D2, human D4 or […] receptors are used for the assays. The sample is homogenized in 100 volumes (w/vol) of 0.05 M Tris HCl buffer containing 120 mM NaCl, 5 mM MgCl2 and 1 mM EDTA at 4° C. and pH 7.4. The sample is then centrifuged at 30,000×g, resuspended and rehomogenized. The sample is then recentrifuged at 30,000×g, the supernatant is removed and the final tissue sample is frozen until it is needed. The tissue is resuspended 1:20 (wt/vol) in 0.05 M Tris HCl buffer containing 120 mM NaCl.
# dopamine D4 receptor = molecular target: T1, dopamine D4 receptor (Homo sapiens, UniProt P21917); assay: D4 receptor binding assay (3H-YM 09151-2 displacement); settings: CHO cells recombinantly expressing human D4; 0.1 nM 3H-YM 09151-2; 25° C.
# T1 sequence (P21917 1-419): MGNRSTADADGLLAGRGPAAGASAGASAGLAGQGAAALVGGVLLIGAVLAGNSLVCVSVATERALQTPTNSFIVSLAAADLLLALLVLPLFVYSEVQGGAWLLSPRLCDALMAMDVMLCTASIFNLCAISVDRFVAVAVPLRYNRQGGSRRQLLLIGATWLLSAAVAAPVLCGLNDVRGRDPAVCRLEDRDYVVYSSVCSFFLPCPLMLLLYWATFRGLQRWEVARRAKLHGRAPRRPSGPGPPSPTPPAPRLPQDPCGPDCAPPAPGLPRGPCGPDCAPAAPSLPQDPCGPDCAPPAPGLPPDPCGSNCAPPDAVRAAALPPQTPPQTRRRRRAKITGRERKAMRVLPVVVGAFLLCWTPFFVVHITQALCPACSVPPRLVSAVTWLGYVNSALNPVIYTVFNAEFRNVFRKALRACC
# Description: as §1, §2, §3
# Chain of dopamine D2 receptor (P52702 whole entry): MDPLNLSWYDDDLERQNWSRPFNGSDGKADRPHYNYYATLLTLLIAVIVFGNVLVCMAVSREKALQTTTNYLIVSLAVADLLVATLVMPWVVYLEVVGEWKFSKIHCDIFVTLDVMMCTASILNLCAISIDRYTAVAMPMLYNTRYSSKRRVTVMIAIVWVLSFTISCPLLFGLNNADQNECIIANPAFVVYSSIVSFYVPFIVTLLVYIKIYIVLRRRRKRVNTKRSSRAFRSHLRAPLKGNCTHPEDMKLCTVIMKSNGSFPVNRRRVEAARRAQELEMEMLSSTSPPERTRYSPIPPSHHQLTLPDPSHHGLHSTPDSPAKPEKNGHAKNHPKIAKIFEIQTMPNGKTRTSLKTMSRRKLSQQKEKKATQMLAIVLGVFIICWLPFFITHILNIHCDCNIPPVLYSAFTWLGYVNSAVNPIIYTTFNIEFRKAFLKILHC
Structure (SMILES),Ki (dopamine D2 receptor),Ki (dopamine D4 receptor)
"Cc1ccc(CN2CCN(CC(=O)N3c4ccccc4[C@H]4CCCC[C@H]43)CC2)cc1 (relative stereo) [Compound 1o, 1-[(4b,8a-cis-5,6,7,8,9,4b,8a-heptahydro-4aH-carbazol-9-yl)ethyl]-2-{4-[(4-methylphenyl)methyl]piperazinyl}ethan-1-one]",0.2 µM,0.011 µM
Cc1ccc(CN2CCN(CC(=O)N3CC(C)c4ccccc43)CC2)cc1 (centres unmarked) [Compound 1b],2.64 µM,0.093 µM
Cc1ccc(CN2CCN(CC(=O)N3c4ccccc4[C@@H](C)[C@H]3C)CC2)cc1 [Compound 1c],0.185 µM,0.002 µM
Cc1ccc(CN2CCN(CC(=O)N3c4ccccc4[C@H](C)[C@@H]3C)CC2)cc1 [Compound 1d],0.473 µM,0.07 µM
COc1ccc(Cl)cc1CN1CCN(CC(=O)N2c3ccccc3C(C)C2C)CC1 (centres unmarked) [Compound 1e],0.128 µM,0.022 µM
COC(=O)C1Cc2ccccc2N1C(=O)CN1CCN(Cc2ccc(Cl)cc2)CC1 (centres unmarked) [Compound 1g],–,0.005 µM
O=C(CN1CCN(Cc2ccc(Cl)cc2)CC1)N1c2ccccc2CC1CO (centres unmarked) [Compound 1j],3.21 µM,–
C=C[C@@H]1Cc2ccccc2N1C(=O)CN1CCN(Cc2ccc(Cl)cc2)CC1 [Compound 1l],–,0.005 µM
O=C(CN1CCN(Cc2ccc(Cl)cc2)CC1)N1c2ccccc2C[C@H]1CF [Compound 1m],1.1 µM,–
